Laboratory results published in ChEMBL document CHEMBL1143353, “Pyrazolo[1,5-a]-1,3,5-triazine as a purine bioisostere: access to potent cyclin-dependent kinase inhibitor (R)-roscovitine analogue” (J Med Chem, 2009).

Legend:
786-0 = assay: cells; settings: Homo sapiens, 786-0, 72 h
Description: Antiproliferative activity against human 786-0 cells after 72 hrs by ViaLight assay

cells = settings: Homo sapiens, HL-60, 72 h
Description: Antiproliferative activity against human HL60(TB) cells after 72 hrs by ViaLight assay

SNB-19 = assay: cells; settings: Homo sapiens, SNB-19, 72 h
Description: Antiproliferative activity against human SNB19 cells after 72 hrs by ViaLight assay

EKVX = assay: cells; settings: Homo sapiens, 72 h
Description: Antiproliferative activity against human EKVX cells after 72 hrs by ViaLight assay

NCI-H522 = assay: cells; settings: Homo sapiens, NCI-H522, 72 h
Description: Antiproliferative activity against human NCI-H522 cells after 72 hrs by ViaLight assay

SF-268 = assay: cells; settings: Homo sapiens, SF-268, 72 h
Description: Antiproliferative activity against human SF268 cells after 72 hrs by ViaLight assay

U-251 = assay: cells; settings: Homo sapiens, U-251, 72 h
Description: Antiproliferative activity against human U251 cells after 72 hrs by ViaLight assay

Malme-3M = assay: cells; settings: Homo sapiens, 72 h
Description: Antiproliferative activity against human MALME-3M cells after 72 hrs by ViaLight assay

RXF 393 = assay: cells; settings: Homo sapiens, RXF 393, 72 h
Description: Antiproliferative activity against human RFX393 cells after 72 hrs by ViaLight assay

NCI-H23 = assay: cells; settings: Homo sapiens, NCI-H23, 72 h
Description: Antiproliferative activity against human NCI-H23 cells after 72 hrs by ViaLight assay

UO-31 = assay: cells; settings: Homo sapiens, UO-31, 72 h
Description: Antiproliferative activity against human UO31 cells after 72 hrs by ViaLight assay

NCI-H226 = assay: cells; settings: Homo sapiens, NCI-H226, 72 h
Description: Antiproliferative activity against human NCI-H226 cells after 72 hrs by ViaLight assay

NCI-H322M = assay: cells; settings: Homo sapiens, 72 h
Description: Antiproliferative activity against human NCI-H322M cells after 72 hrs by ViaLight assay

HT-29 = assay: cells; settings: Homo sapiens, HT-29, 72 h
Description: Antiproliferative activity against human HT29 cells after 72 hrs by ViaLight assay

CAKI-1 = assay: cells; settings: Homo sapiens, CAKI-1, 72 h
Description: Antiproliferative activity against human Caki1 cells after 72 hrs by ViaLight assay

NCI/ADR-RES = assay: cells; settings: Homo sapiens, 72 h
Description: Antiproliferative activity against human NCI/ADR-RES cells after 72 hrs by ViaLight assay

SF-295 = assay: cells; settings: Homo sapiens, SF-295, 72 h
Description: Antiproliferative activity against human SF295 cells after 72 hrs by ViaLight assay

HCC 2998 = assay: cells; settings: Homo sapiens, HCC 2998, 72 h
Description: Antiproliferative activity against human HCC2998 cells after 72 hrs by ViaLight assay

OVCAR-4 = assay: cells; settings: Homo sapiens, OVCAR-4, 72 h
Description: Antiproliferative activity against human OVCAR4 cells after 72 hrs by ViaLight assay

IGROV-1 = assay: cells; settings: Homo sapiens, IGROV-1, 72 h
Description: Antiproliferative activity against human IGROV1 cells after 72 hrs by ViaLight assay

DU-145 = assay: cells; settings: Homo sapiens, DU-145, 72 h
Description: Antiproliferative activity against human DU145 cells after 72 hrs by ViaLight assay

MDA-MB-231 = assay: cells; settings: Homo sapiens, MDA-MB-231, 72 h
Description: Antiproliferative activity against human MDA-MB-231 cells after 72 hrs by ViaLight assay

SK-OV-3 = assay: cells; settings: Homo sapiens, SK-OV-3, 72 h, read-out: pGI50 (converted)
Description: Antiproliferative activity against human SKOV3 cells after 72 hrs by ViaLight assay

UACC-62 = assay: cells; settings: Homo sapiens, UACC-62, 72 h
Description: Antiproliferative activity against human UACC62 cells after 72 hrs by ViaLight assay

T47D = assay: cells; settings: Homo sapiens, 72 h
Description: Antiproliferative activity against human T47D cells after 72 hrs by ViaLight assay

OVCAR-3 = assay: cells; settings: Homo sapiens, OVCAR-3, 72 h
Description: Antiproliferative activity against human OVCAR-3 cells after 72 hrs by ViaLight assay

CC[C@H](CO)Nc1nc(NCc2ccccc2)c2ncn(C(C)C)c2n1 [SELICICLIB]
GI50 (786-0): 25.1 µM | GI50 (cells): 19.9 µM | GI50 (cells; read-out: pGI50 (converted)): 20 µM | GI50 (SNB-19; read-out: pGI50 (converted)): 12.6 µM | TGI (SNB-19; read-out: pTGI): 31.6 µM | GI50 (EKVX): 19.9 µM | TGI (EKVX): 50.1 µM | GI50 (EKVX; read-out: pGI50 (converted)): 20 µM | TGI (EKVX; read-out: pTGI): 50.1 µM | GI50 (NCI-H522): 15.8 µM | TGI (NCI-H522): 63.1 µM | GI50 (NCI-H522; read-out: pGI50 (converted)): 15.8 µM | TGI (NCI-H522; read-out: pTGI): 63.1 µM | GI50 (SF-268): 19.9 µM | GI50 (SF-268; read-out: pGI50 (converted)): 20 µM | GI50 (U-251): 50.1 µM | GI50 (U-251; read-out: pGI50 (converted)): 12.6 µM | GI50 (Malme-3M): 19.9 µM | TGI (Malme-3M): 50.1 µM | GI50 (Malme-3M; read-out: pGI50 (converted)): 25.1 µM | GI50 (RXF 393): 5 µM | GI50 (RXF 393; read-out: pGI50 (converted)): 6.31 µM | GI50 (NCI-H23): 12.6 µM | TGI (NCI-H23): 50.1 µM | GI50 (NCI-H23; read-out: pGI50 (converted)): 12.6 µM | TGI (NCI-H23; read-out: pTGI): 50.1 µM | GI50 (UO-31): 12.6 µM | GI50 (UO-31; read-out: pGI50 (converted)): 63.1 µM | TGI (UO-31; read-out: pTGI): 63.1 µM | GI50 (NCI-H226): 19.9 µM | GI50 (NCI-H226; read-out: pGI50 (converted)): 20 µM | GI50 (NCI-H322M): 31.6 µM | GI50 (NCI-H322M; read-out: pGI50 (converted)): 31.6 µM | GI50 (HT-29): 19.9 µM | GI50 (HT-29; read-out: pGI50 (converted)): 20 µM | GI50 (CAKI-1): 6.3 µM | GI50 (CAKI-1; read-out: pGI50 (converted)): 12.6 µM | GI50 (NCI/ADR-RES): 6.3 µM | TGI (NCI/ADR-RES): 63.1 µM | GI50 (SF-295): 25.1 µM | GI50 (SF-295; read-out: pGI50 (converted)): 25.1 µM | GI50 (HCC 2998): 31.6 µM | GI50 (HCC 2998; read-out: pGI50 (converted)): 31.6 µM | GI50 (OVCAR-4): 31.6 µM | GI50 (OVCAR-4; read-out: pGI50 (converted)): 31.6 µM | TGI (OVCAR-4; read-out: pTGI): 63.1 µM | GI50 (IGROV-1): 6.3 µM | GI50 (IGROV-1; read-out: pGI50 (converted)): 6.31 µM | GI50 (DU-145): 15.8 µM | GI50 (DU-145; read-out: pGI50 (converted)): 20 µM | GI50 (MDA-MB-231): 39.8 µM | GI50 (MDA-MB-231; read-out: pGI50 (converted)): 12.6 µM | TGI (MDA-MB-231; read-out: pTGI): 12.6 µM | GI50 (SK-OV-3): 6.31 µM | GI50 (UACC-62): 7.9 µM | TGI (UACC-62): 31.6 µM | GI50 (T47D): 16.8 µM | GI50 (T47D; read-out: pGI50 (converted)): 39.8 µM | GI50 (OVCAR-3): 12.6 µM | GI50 (OVCAR-3; read-out: pGI50 (converted)): 12.6 µM
